In patent US10632106B2, “Methods of cancer treatment with 2-(1′H-Indole-3′-carbonyl)-thiazole-4-carboxylic acid methyl ester” (Ariagen, Inc., priority 2009, dated 2020):

How the values were obtained:
[1] = Mouse cancer model studies of Example 5, all models: animal death; type: in vivo; conditions: any model, entire therapies; with oral gavage of 20 ml/kg water
Method: All the procedures related to animal handling, care, and the treatment in the study were performed following guidelines of KeyGen Biotechn Co., Ltd. (Nanjing, China), a contract research organization we hired, based on the guidance of the Association for Assessment and Accreditation of Laboratory Animal Care (AAALAC). Animals were checked for any effects of tumor growth and drug treatment on normal behavior such as mobility, food and water consumption, body weight gain/loss (bodyweights were measured every two days), eye/hair matting, and any other abnormal effect. Death and observed clinical signs were recorded. Individual animals with a tumor volume exceeding 3,000 mm^3 or animals of a group with a mean tumor volume exceeding 2,000 mm^3 were euthanized. In addition, animals showing signs of severe distress and/or pain or losing the capability of accessing adequate food or water were humanely sacrificed.
Each mouse was inoculated subcutaneously in right armpit with about 1×10^6 cells in 0.1 ml of PBS for tumor development. While cells of human in origin were inoculated into female BALB/c nude mice, MFC cells were inoculated into female 615 mice and U14 and 5180 cells into female ICR mice. When a mean tumor volume reached 50 to 150 mm^3 as indicated, the tumor-bearing mice were divided randomly into vehicle control and ITE treatment group. […]

[2] = tested on: human liver cancer cell line HepG2 xenografts; assay: HepG2 xenograft growth inhibition in nude mice; type: in vivo; conditions: 80 mg/kg i.p. once daily
Method: All the procedures related to animal handling, care, and the treatment in the study were performed following guidelines approved by an Institutional Animal Care and Use Committee (IACUC) of Crown Bioscience, Inc. (Santa Clara, Calif., USA, a contract research organization we hired) based on the guidance of the Association for Assessment and Accreditation of Laboratory Animal Care (AAALAC). Animals were checked for any effects of tumor growth and drug treatment on normal behavior such as mobility, food and water consumption, body weight gain/loss (gross body weights were measured twice weekly), eye/hair matting, and any other abnormal effect. Death and observed clinical signs were recorded on the basis of the number of animals within each group. Individual animals with a tumor volume exceeding 3,000 mm^3 or animals of a group with a mean tumor volume exceeding 2,000 mm^3 were euthanized. In addition, animals showing signs of severe distress and/or pain, dropping body weight more than 20% from that at the start of treatment, or losing the capability of accessing adequate food or water were humanely sacrificed.
Each mouse was inoculated subcutaneously at the right flank with the LNCaP cells (1×10^7) in 0.1 ml of PBS for tumor development. When a mean tumor volume reached around 150 mm^3, the tumor-bearing mice were divided into homogeneous blocks based on their tumor volumes followed by a randomization of mice in each block into treatment groups (thus minimizing variations in tumor response to treatments due to the differential in initial mean tumor volumes). Each treatment group was consisted of 8 tumor-bearing mice. Vehicle (DMSO) or ITE in the vehicle at specified doses were administered to the mice by either i.p. (intraperitoneal) or p.o. (oral) injection once or twice daily for 28 continuous days as indicated.
Tumor volume was measured twice weekly in two dimensions using a caliper and the volume was calculated with a formula of: V=0.5 a×b^2, where a and b are the long and short diameter (in mm) of a tumor, respectively. The tumor volume was then used for calculations of both TGI (Tumor Growth Inhibition) and TGD (Tumor Growth Delay). The TGI was determined by: TGI=ΔT/ΔC×100%, where ΔT was a difference between the mean tumor volume at a specified day of observation and that at the day treatment starts (day 1) for a drug treated group whereas ΔC was the same difference measured for the control group. The TGD was calculated as: TGD=T−C, where T was the time (in days) required for tumors in a drug treated group to reach a predetermined mean tumor volume and C the time (in days) in the control group to reach the same volume. A tumor weight was derived by equating 1,000 mm^3 in volume to 1,000 mg in weight. A net body weight was then derived by subtracting a tumor weight from a corresponding gross body weight with the tumor.
Summary statistics, including mean and the standard error of the mean (SEM), are provided for the tumor volume of each group at each time point. Statistical analysis of difference in tumor volume among groups was conducted on a data set either at the best therapeutic time point or at the final dosing day as indicated. The tumor volume data were log-transformed and evaluated using a one-way ANOVA followed by Tukey's test when significance was observed. All data were analyzed using SPSS 16.0 and p<0.05 was considered to be statistically significant.
The culture and inoculation of human prostate cancer cell line LNCaP were as described in Example 1. The manipulation for human liver cancer cell line HepG2 (ATCC) was similar as that for LNCaP except that DMEM (instead of RPMI-1640) medium was used, the L-glutamine was not used, and 2×10^6 cells were used for inoculation into female nude mice. The handling of human ovarian cancer cell line OVCAR-3 (ATCC) was the same as that of LNCaP except that the DMEM medium was used and 5×10^6 cells were used for inoculation into female nude mice. […]

COC(=O)c1csc(C(=O)c2c[nH]c3ccccc23)n1 [ITE, 2-(1′H-indole-3′-carbonyl)-thiazole-4-carboxylic acid methyl ester]
animal death in ITE treatment group [1]: no single animal death | net body weight loss [2]: no obvious net body weight loss | TGD (Tumor Growth Delay) ([2]; at a tumor volume of 800 mm^3): 29 days | TGI (Tumor Growth Inhibition) ([2]; day 22, TGI=ΔT/ΔC×100%): 25%
